Test results published in patent publication US10294202B2, “Pyrrolidinones as herbicides” (FMC Corporation, priority 2013, dated 2019).

Columns and labels:
[1] = system: barnyardgrass; assay: Test A pre-/postemergence herbicide test; format: in vivo, Echinochloa crus-galli; details: for Plant response rating, Barnyardgrass: 0 to 100 scale
In short: (§1)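 Visual 0–100 ratings (100 = complete control) made about 10 days after treatment, greenhouse-held plants compared with untreated controls. Treatments: postemergence sprays on one- to two-leaf plants (2–10 cm tall) and preemergence directed soil sprays after planting in loam–sand, chemicals formulated in non-phytotoxic solvent containing surfactant.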

[2] = system: kochia; assay: Test A pre-/postemergence herbicide test; format: in vivo, Kochia scoparia; details: for Plant response rating, Kochia: 0 to 100 scale
In short: as §1

[3] = system: ragweed; assay: Test A pre-/postemergence herbicide test; format: in vivo, Ambrosia elatior; details: for Plant response rating, Ragweed: 0 to 100 scale
In short: as §1

[4] = system: ryegrass, Italian; assay: Test A pre-/postemergence herbicide test; format: in vivo, Lolium multiflorum; details: for Plant response rating, Ryegrass, Italian: 0 to 100 scale
In short: as §1

[5] = system: giant foxtail; assay: Test A pre-/postemergence herbicide test; format: in vivo, Setaria faberii; details: for Plant response rating, Foxtail, Giant: 0 to 100 scale
In short: as §1

[6] = system: pigweed; assay: Test A pre-/postemergence herbicide test; format: in vivo, Amaranthus retroflexus; details: for Plant response rating, Pigweed: 0 to 100 scale
In short: as §1

[7] = system: wheat; assay: Test A pre-/postemergence herbicide test; format: in vivo, Triticum aestivum; details: Postemergence; for Plant response rating, Wheat: 125 g ai/ha, 0 to 100 scale, 0 is no effect, 100 is complete control; for Wheat plant response rating (0 to 100 scale, 0 is no effect, 100 is complete control): 500 g ai/ha
In short: as §1

[8] = system: corn; assay: Test A pre-/postemergence herbicide test; format: in vivo, Zea mays; details: Postemergence; for Plant response rating, Corn: 125 g ai/ha, 0 to 100 scale, 0 is no effect, 100 is complete control; for Corn plant response rating (0 to 100 scale, 0 is no effect, 100 is complete control): 500 g ai/ha
In short: as §1

[9] = system: blackgrass; assay: Test A postemergence herbicide test; format: in vivo, Alopecurus myosuroides; details: for Plant response rating, Blackgrass: 125 g ai/ha, 0 to 100 scale, 0 is no effect, 100 is complete control; for Blackgrass plant response rating (0 to 100 scale, 0 is no effect, 100 is complete control): 500 g ai/ha
In short: (§2)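 Potted in loam soil/sand blend; postemergence application at 1–2 leaf stage (2–10 cm). Greenhouse ~10 d. Visual injury vs untreated, 0–100 scale; 100 = complete control.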

[10] = system: galium; assay: Test A postemergence herbicide test; format: in vivo, Galium aparine; details: for Plant response rating, Galium: 125 g ai/ha, 0 to 100 scale, 0 is no effect, 100 is complete control; for Galium plant response rating (0 to 100 scale, 0 is no effect, 100 is complete control): 500 g ai/ha
In short: as §2

[11] = system: rice; assay: Test B flooded paddy test; format: in vivo, Oryza sativa; details: Flood, scale of 0 to 100 where 0 is no effect and 100 is complete control
In short: (§3)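 Paddy-water application at a 3 cm flood, young plants having two leaves. Water level maintained; greenhouse, 13–15 days; visual 0–100 control rating.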

[12] = system: sedge, umbrella; assay: Test B flooded paddy test; format: in vivo, Cyperus difformis; details: Flood, scale of 0 to 100 where 0 is no effect and 100 is complete control
In short: as §3

[13] = system: ducksalad; assay: Test B flooded paddy test; format: in vivo, Heteranthera limosa; details: Flood, scale of 0 to 100 where 0 is no effect and 100 is complete control
In short: as §3

[14] = system: barnyardgrass; assay: Test B flooded paddy test; format: in vivo, Echinochloa crus-galli; details: Flood, scale of 0 to 100 where 0 is no effect and 100 is complete control
In short: as §3

[15] = 125 g ai/ha, visual rating, 0 no effect, 100 complete control, approximately 10 days, preemergence
[16] = Postemergence, 125 g ai/ha, 0 is no effect, 100 is complete control
[17] = preemergence, 500 g ai/ha, 0 is no effect and 100 is complete control

Compound | Plant response rating, Barnyardgrass [1, 15] | Plant response rating, Barnyardgrass [1, 16] | Barnyardgrass plant response rating (0 to 100 scale, 0 is no effect, 100 is complete control) ([1]; Postemergence, 500 g ai/ha) | Plant response rating, Barnyardgrass [1, 17] | Plant response rating, Kochia [2, 15] | Plant response rating, Kochia [2, 16] | Kochia plant response rating (0 to 100 scale, 0 is no effect, 100 is complete control) ([2]; Postemergence, 500 g ai/ha) | Plant response rating, Kochia [2, 17] | Plant response rating, Ragweed [3, 15] | Plant response rating, Ragweed [3, 16] | Ragweed plant response rating (0 to 100 scale, 0 is no effect, 100 is complete control) ([3]; Postemergence, 500 g ai/ha) | Plant response rating, Ragweed [3, 17] | Plant response rating, Ryegrass, Italian [4, 15] | Plant response rating, Ryegrass, Italian [4, 16] | Ryegrass, Italian plant response rating (0 to 100 scale, 0 is no effect, 100 is complete control) ([4]; Postemergence, 500 g ai/ha) | Plant response rating, Ryegrass, Italian [4, 17] | Plant response rating, Foxtail, Giant [5, 15] | Plant response rating, Foxtail, Giant [5, 16] | Foxtail, Giant plant response rating (0 to 100 scale, 0 is no effect, 100 is complete control) ([5]; Postemergence, 500 g ai/ha) | Plant response rating, Foxtail, Giant [5, 17] | also measured
O=C1NCC(c2cccc(S(F)(F)(F)(F)F)c2)C1C(=O)Nc1ccccc1C(F)(F)F (stereo not drawn) [Compound 215] | 60 | 50 | 60 | 80 | 0 | 0 | 0 | 0 | 0 | 0 | 10 | 0 | 0 | 0 | 0 | 10 | 80 | 80 | 80 | 90 | Plant response rating, Pigweed [6, 15]: 0; Plant response rating, Pigweed [6, 16]: 50; Pigweed plant response rating (0 to 100 scale, 0 is no effect, 100 is complete control) ([6]; Postemergence, 500 g ai/ha): 60; Plant response rating, Pigweed [6, 17]: 50; Plant response rating, Wheat [7]: 0; Wheat plant response rating (0 to 100 scale, 0 is no effect, 100 is complete control) [7]: 0; Plant response rating, Corn [8]: 0; Corn plant response rating (0 to 100 scale, 0 is no effect, 100 is complete control) [8]: 0; Plant response rating, Blackgrass [9]: 30; Blackgrass plant response rating (0 to 100 scale, 0 is no effect, 100 is complete control) [9]: 50; Plant response rating, Galium [10]: 40; Galium plant response rating (0 to 100 scale, 0 is no effect, 100 is complete control) [10]: 60; Plant response rating, Rice ([11]; 1000 g ai/ha): 0; Plant response rating, Sedge, Umbrella ([12]; 1000 g ai/ha): 0; Plant response rating, Ducksalad ([13]; 1000 g ai/ha): 80; Plant response rating, Barnyardgrass ([14]; 1000 g ai/ha): 60
O=C1NCC(c2cccc3ccccc23)C1C(=O)Nc1ccccc1F (stereo not drawn) [Compound 216] | 20 | 0 | 0 | 60 | 0 | 0 | 0 | 0 | 0 | 0 | 0 | 0 | 0 | 0 | 0 | 0 | 40 | 0 | 10 | 50 | Plant response rating, Pigweed [6, 15]: 0; Plant response rating, Pigweed [6, 16]: 0; Pigweed plant response rating (0 to 100 scale, 0 is no effect, 100 is complete control) ([6]; Postemergence, 500 g ai/ha): 0; Plant response rating, Pigweed [6, 17]: 0; Plant response rating, Wheat [7]: 0; Wheat plant response rating (0 to 100 scale, 0 is no effect, 100 is complete control) [7]: 0; Plant response rating, Corn [8]: 0; Corn plant response rating (0 to 100 scale, 0 is no effect, 100 is complete control) [8]: 0; Plant response rating, Blackgrass [9]: 0; Blackgrass plant response rating (0 to 100 scale, 0 is no effect, 100 is complete control) [9]: 0; Plant response rating, Galium [10]: 0; Galium plant response rating (0 to 100 scale, 0 is no effect, 100 is complete control) [10]: 0; Plant response rating, Rice ([11]; 500 g ai/ha): 0; Plant response rating, Sedge, Umbrella ([12]; 500 g ai/ha): 0; Plant response rating, Ducksalad ([13]; 500 g ai/ha): 0; Plant response rating, Barnyardgrass ([14]; 500 g ai/ha): 0
Cc1ccccc1NC(=O)C1C(=O)NCC1c1ccc(OC(F)F)cc1 (stereo not drawn) [Compound 227] | 20 | 20 | 80 | 50 | 20 | 0 | 40 | 20 | 0 | 0 | 0 | 0 | 0 | 0 | 20 | 30 | 80 | 30 | 80 | 90 | Plant response rating, Pigweed [6, 15]: 0; Plant response rating, Pigweed [6, 16]: 0; Pigweed plant response rating (0 to 100 scale, 0 is no effect, 100 is complete control) ([6]; Postemergence, 500 g ai/ha): 0; Plant response rating, Pigweed [6, 17]: 20; Plant response rating, Wheat [7]: 0; Wheat plant response rating (0 to 100 scale, 0 is no effect, 100 is complete control) [7]: 0; Plant response rating, Corn [8]: 0; Corn plant response rating (0 to 100 scale, 0 is no effect, 100 is complete control) [8]: 0; Plant response rating, Blackgrass [9]: 0; Blackgrass plant response rating (0 to 100 scale, 0 is no effect, 100 is complete control) [9]: 40; Plant response rating, Galium [10]: 0; Galium plant response rating (0 to 100 scale, 0 is no effect, 100 is complete control) [10]: 0; Plant response rating, Rice ([11]; 500 g ai/ha): 0; Plant response rating, Sedge, Umbrella ([12]; 500 g ai/ha): 0; Plant response rating, Ducksalad ([13]; 500 g ai/ha): 90; Plant response rating, Barnyardgrass ([14]; 500 g ai/ha): 0
